Several values for one entry are separate records, joined by “and”; a condition that tells them apart may be missing. Equal values may be shown once. Some results are limits rather than exact numbers.

What is called IC50 is the concentration that gives 50% inhibition. Read a high IC50 as weaker potency.

The test addresses T1, AHR (Homo sapiens, UniProt P35869).
T1 construct: U87 MG glioblastoma cells (ATCC #HTB-14) endogenously expressing AHR; endogenous in cells; host or cells: U87 MG glioblastoma cells (ATCC #HTB-14)
T1 sequence (P35869 11-848): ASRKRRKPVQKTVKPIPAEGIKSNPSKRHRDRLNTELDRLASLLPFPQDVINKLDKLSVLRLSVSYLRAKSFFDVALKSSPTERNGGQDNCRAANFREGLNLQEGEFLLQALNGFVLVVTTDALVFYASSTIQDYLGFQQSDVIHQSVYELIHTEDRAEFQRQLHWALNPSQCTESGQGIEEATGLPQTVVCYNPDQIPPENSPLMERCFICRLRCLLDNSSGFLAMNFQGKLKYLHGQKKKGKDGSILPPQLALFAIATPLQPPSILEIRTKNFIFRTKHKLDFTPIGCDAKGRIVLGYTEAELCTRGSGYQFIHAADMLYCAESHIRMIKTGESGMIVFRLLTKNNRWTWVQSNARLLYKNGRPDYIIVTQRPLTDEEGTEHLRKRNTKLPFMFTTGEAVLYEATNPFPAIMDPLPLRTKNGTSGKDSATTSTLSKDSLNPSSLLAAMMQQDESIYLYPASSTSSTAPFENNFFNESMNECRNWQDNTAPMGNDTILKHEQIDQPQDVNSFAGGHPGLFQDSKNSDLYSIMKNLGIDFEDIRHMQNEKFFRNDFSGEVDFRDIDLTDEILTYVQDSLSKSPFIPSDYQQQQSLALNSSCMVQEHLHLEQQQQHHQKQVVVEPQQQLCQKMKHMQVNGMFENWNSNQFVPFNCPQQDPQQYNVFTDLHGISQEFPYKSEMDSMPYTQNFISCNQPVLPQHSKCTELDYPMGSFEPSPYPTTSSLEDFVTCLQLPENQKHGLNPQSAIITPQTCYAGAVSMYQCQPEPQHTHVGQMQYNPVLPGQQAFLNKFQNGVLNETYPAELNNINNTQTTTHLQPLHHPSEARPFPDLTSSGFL
In words: In vitro assay 1: antagonism in human cell line (AHR transactivation, firefly luciferase reporter, kynurenic acid prestimulated). Type of test: cell-based. The following applies: AHR Antagonism Human IC50 [M]. On the procedure: Examples were tested in selected biological assays one or more times. When tested more than once, data are reported as either average values or as median values, wherein • the average value, also referred to as the arithmetic mean value, represents the sum of the values obtained divided by the number of times tested, and • the median value represents the middle number of the group of values when ranked in ascending or descending order. If the number of values in the data set is odd, the median is the middle value. If the number of values in the data set is even, the median is the arithmetic mean of the two middle values.
Transactivation assays were carried out in U87 MG glioblastoma cells (ATCC #HTB-14) endogenously expressing AHR. In addition the cells were stably transfected with an AHR inducible firefly luciferase reporter gene construct that carried AHR-binding sites (DRE) in its promoter and a renilla reporter gene construct with constitutively active promoter. Kynurenic acid is an endogenous AHR activating ligand and was used to prestimulate test cells prior to testing the antagonistic properties of compounds.
As positive inhibition control cells supplemented with 150 μM kynurenic acid were incubated in presence of 5 μM Staurosporin. Normalization was done by positive and negative controls.
Firefly luciferase and Renilla activity was determined by the DualGlo Luciferase Assay System (Promega, #2920). Renilla activity was used to assess toxic effects of compounds.

The molecule `COc1ccc(-c2nc3c4ccc(OC)cc4nc(N[C@@H]4CNCCNC4=O)n3n2)cc1` [Example 272, (6R)-6-{[8-methoxy-2-(4-methoxyphenyl)[1,2,4]triazolo[1,5-c]quinazolin-5-yl]amino}-1,4-diazepan-5-one] gave an IC50 of 2.77e-06 M. Same read-out and setting: under `CCCCNC(=O)CNc1nc2ccccc2c2nc(-c3cccc(OC(F)(F)F)c3)nn12` [Example 317, N-butyl-N^2-{2-[3-(trifluoromethoxy)phenyl][1,2,4]triazolo[1,5-c]quinazolin-5-yl}glycinamide] stands 1.45e-07 M; under `CCCCC(Nc1nc2ccccc2c2nc(-c3cccc(OC(F)(F)F)c3)nn12)C(N)=O` (stereo not shown) [Example 323], > 2e-05 M and 1.32e-05 M and 8.31e-06 M. On the same count and under the same terms, the figure for `Cc1sccc1-c1nc2c3ccccc3nc(N[C@@H]3CCCCNC3=O)n2n1` [Example 346, (3R)-3-{[2-(2-methylthiophen-3-yl)[1,2,4]triazolo[1,5-c]quinazolin-5-yl]amino}azepan-2-one] is 2.24e-09 M; for `Cc1cc(-c2nc3c4ccccc4nc(N[C@@H]4CCCCNC4=O)n3n2)cs1` [Example 352, (3R)-3-{[2-(5-methylthiophen-3-yl)[1,2,4]triazolo[1,5-c]quinazolin-5-yl]amino}azepan-2-one] it is 9.72e-10 M. In turn, `CCC[C@@H](Nc1nc2ccccc2c2nc(-c3csc(C)c3)nn12)C(=O)NC` [Example 357, N-methyl-N^2-[2-(5-methylthiophen-3-yl)[1,2,4]triazolo[1,5-c]quinazolin-5-yl]-D-norvalinamide] gave an IC50 of 1.35e-09 M. The molecule `Cn1cc(-c2nc3c4cccc(C5(C(F)(F)F)CC5)c4nc(N[C@@H]4CNCCNC4=O)n3n2)cn1` [Example 430] displayed an IC50 of 3.22e-07 M. Still for that read-out and setting: under `CC[C@@H](Nc1nc2ccccc2c2nc(-c3cccc(Br)c3)nn12)C(N)=O` [Example 445, (2R)-2-{[2-(3-bromophenyl)[1,2,4]triazolo[1,5-c]quinazolin-5-yl]amino}butanamide] stands 9.27e-08 M; under `CN(C)c1ccccc1-c1nc2c3ccccc3nc(N[C@@H]3CCCCNC3=O)n2n1` [Example 455, (3R)-3-({2-[2-(dimethylamino)phenyl][1,2,4]triazolo[1,5-c]quinazolin-5-yl}amino)azepan-2-one], 1.17e-07 M; under `CN1CC[C@@H](Nc2nc3ccccc3c3nc(-c4ccccc4OC(F)(F)F)nn23)C1=O` [Example 460, (3R)-1-methyl-3-({2-[2-(trifluoromethoxy)phenyl][1,2,4]triazolo[1,5-c]quinazolin-5-yl}amino)pyrrolidin-2-one], 7.67e-08 M. The same measure, in the same setting: the figure for `O=C1NCCCC[C@H]1Nc1nc2ccccc2c2nc(-c3ccc(Cl)cc3OC(F)F)nn12` [Example 525, (3R)-3-({2-[4-chloro-2-(difluoromethoxy)phenyl][1,2,4]triazolo[1,5-c]quinazolin-5-yl}amino)azepan-2-one] is 9.92e-10 M; for `O=C1NCCCCCC1Nc1nc2ccccc2c2nc(-c3ccc(Cl)cc3OC(F)F)nn12` (stereo not shown) [Example 529, 3-({2-[4-chloro-2-(difluoromethoxy)phenyl][1,2,4]triazolo[1,5-c]quinazolin-5-yl}amino)azocan-2-one] it is 2.8e-09 M.

`CN1CCCC[C@H](Nc2nc3ccccc3c3nc(-c4ccc(Cl)cc4OC(F)F)nn23)C1=O` [Example 530, (3S)-3-({2-[4-chloro-2-(difluoromethoxy)phenyl][1,2,4]triazolo[1,5-c]quinazolin-5-yl}amino)-1-methylazepan-2-one] came in with an IC50 of more than 2e-05 M.

`CC[C@@H](Nc1nc2ccccc2c2nc(-c3ccc(Cl)cc3OC(F)F)nn12)C(N)=O` [Example 531, (2R)-2-({2-[4-chloro-2-(difluoromethoxy)phenyl][1,2,4]triazolo[1,5-c]quinazolin-5-yl}amino)butanamide]: it took 1.29e-09 M to reach half-maximal inhibition (IC50). On the same count and under the same terms, under `Cn1cc(-c2nc3c4cc(C(F)(F)F)ccc4nc(N[C@@H]4CCCCNC4=O)n3n2)cn1` [Example 546, (3R)-3-{[2-(1-methyl-1H-pyrazol-4-yl)-9-(trifluoromethyl)[1,2,4]triazolo[1,5-c]quinazolin-5-yl]amino}azepan-2-one] stands 2.24e-06 M; under `COc1ccc(-c2nc3c4cc(C5CC5)ccc4nc(N[C@@H]4CCCCNC4=O)n3n2)cc1` [Example 547, (3R)-3-{[9-cyclopropyl-2-(4-methoxyphenyl)[1,2,4]triazolo[1,5-c]quinazolin-5-yl]amino}azepan-2-one], more than 5.71e-06 M.

With `COc1ccc2c(c1)nc(N[C@@H]1CCCCNC1=O)n1nc(-c3cnn(C)c3)nc21` [Example 550], half-maximal inhibition (IC50) was put at 5.35e-06 M. Molecule `O=C1NCCCC[C@H]1Nc1nc2c(C(F)(F)F)cccc2c2nc(-c3cccc(F)c3)nn12` [Example 581, (3R)-3-{[2-(3-fluorophenyl)-7-(trifluoromethyl)[1,2,4]triazolo[1,5-c]quinazolin-5-yl]amino}azepan-2-one] came in with an IC50 of 1.69e-09 M.

On to `Cn1cc(-c2nc3c4cccc(C(F)(F)F)c4nc(N[C@@H]4CCNC4=O)n3n2)cn1` [Example 586, (3R)-3-{[2-(1-methyl-1H-pyrazol-4-yl)-7-(trifluoromethyl)[1,2,4]triazolo[1,5-c]quinazolin-5-yl]amino}pyrrolidin-2-one], for which the concentration for half-maximal inhibition (IC50) turned out to be 2.79e-07 M. Same read-out and setting: under `COc1cc2nc(N[C@@H]3CCCCNC3=O)n3nc(-c4cnn(C)c4)nc3c2cc1OC` [Example 589, (3R)-3-{[8,9-dimethoxy-2-(1-methyl-1H-pyrazol-4-yl)[1,2,4]triazolo[1,5-c]quinazolin-5-yl]amino}azepan-2-one] stands more than 2e-05 M. On the same count and under the same terms, under `COc1ccc(-c2nc3c4cc(OC)c(OC)cc4nc(N[C@@H]4CCCCNC4=O)n3n2)cc1` [Example 590, (3R)-3-{[8,9-dimethoxy-2-(4-methoxyphenyl)[1,2,4]triazolo[1,5-c]quinazolin-5-yl]amino}azepan-2-one] stands 3.65e-07 M. Same read-out and setting: under `Nc1ccc(-c2nc3c4ccccc4nc(N[C@@H]4CCCCNC4=O)n3n2)cc1` [Example 620, (3R)-3-{[2-(4-aminophenyl)[1,2,4]triazolo[1,5-c]quinazolin-5-yl]amino}azepan-2-one] stands 8.44e-08 M; under `Cc1cc(-c2nc3c4ccccc4nc(N[C@@H]4CCCCNC4=O)n3n2)ccc1F` [Example 626, (3R)-3-{[2-(4-fluoro-3-methylphenyl)[1,2,4]triazolo[1,5-c]quinazolin-5-yl]amino}azepan-2-one], 9.2e-10 M; under `COc1ccc(-c2nc3c4c(C(C)C)cccc4nc(N[C@@H]4CCCCNC4=O)n3n2)cc1` [Example 726, (3R)-3-{[2-(4-methoxyphenyl)-10-(propan-2-yl)[1,2,4]triazolo[1,5-c]quinazolin-5-yl]amino}azepan-2-one], 1.09e-05 M.

As to `O=C1NCCCC[C@H]1Nc1nc2c(C(F)(F)F)cccc2c2nc(-c3nc(C4CC4)cs3)nn12` [Example 747, (3R)-3-{[2-(4-cyclopropyl-1,3-thiazol-2-yl)-7-(trifluoromethyl)[1,2,4]triazolo[1,5-c]quinazolin-5-yl]amino}azepan-2-one], the IC50 was 1.65e-09 M. In the case of `COc1cccc2c1nc(N[C@@H]1CCCCNC1=O)n1nc(-c3cn[nH]c3)nc21` [Example 755, (3R)-3-{[7-methoxy-2-(1H-pyrazol-4-yl)[1,2,4]triazolo[1,5-c]quinazolin-5-yl]amino}azepan-2-one], half-maximal inhibition (IC50) required 9.19e-06 M.

Under “firefly luciferase reporter”, `Cn1cc(-c2nc3c4cccc(C(C)(C)O)c4nc(N[C@@H]4CCCCNC4=O)n3n2)cn1` [Example 861, (3R)-3-{[7-(2-hydroxypropan-2-yl)-2-(1-methyl-1H-pyrazol-4-yl)[1,2,4]triazolo[1,5-c]quinazolin-5-yl]amino}azepan-2-one] had an IC50 of 1.34e-07 M. Same read-out and setting: the figure for `C[C@@H](Nc1nc2c(C(F)(F)F)cccc2c2nc(-c3cnn(C)c3)nn12)C(=O)O` [Example 869, N-[2-(1-methyl-1H-pyrazol-4-yl)-7-(trifluoromethyl)[1,2,4]triazolo[1,5-c]quinazolin-5-yl]-D-alanine] is more than 2e-05 M.

Values taken from patent US20230113037A1 (Bayer Aktiengesellschaft, priority 2019, published 2023).
